From PubChem BioAssay AID2060898 (Molecular Pharmacology Branch, DTP, NCI, 2025)
Several values for one entry are separate records, joined by “and”; a condition that tells them apart may be missing. Equal values may be shown once. Each block holds one molecule with its values, some of them ahead of it.

System: 616215-338-R-J1-PDC complex spheroid viability
Test: Anticancer human tumor 616215-338-R-J1-PDC patient-derived colon adenocarcinoma cell line growth inhibition [RAS]
Conditions: for viability, T/C: stronger effect = lower value
In short: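 Tumour cells grown as complex spheroids with HUVEC endothelial cells and mesenchymal stem cells, treated with RAS pathway inhibitor combinations. Each agent spans half-log steps from near clinical Cmax, or 10 microM where Cmax is unknown.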

[1] = curve of first compound, second compound 0.000949 µM
[2] = curve of first compound, second compound 0.003 µM
[3] = curve of first compound, second compound 0.00949 µM
[4] = curve of first compound, second compound 0.03 µM
[5] = curve of first compound, second compound 0.0949 µM
[6] = curve of first compound, second compound 0.3 µM
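Also: spheroids exposed to agents for seven days before viability readout.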
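For viability, T/C in this document: 100% = DMSO vehicle control viability.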

IC50 [1]: > 1000 nM | IC50 [2]: 695 nM | IC50 [3]: 112 nM | IC50 [4]: < 3.16 nM | IC50 [5]: < 3.16 nM | IC50 [6]: < 3.16 nM
Compound: CCN1CCN(Cc2ccc(Nc3ncc(F)c(-c4cc(F)c5nc(C)n(C(C)C)c5c4)n3)nc2)CC1 + CCn1c(-c2cc(N3CCN(C)CC3)cnc2C(C)OC)c2c3cc(ccc31)-c1csc(n1)CC(NC(=O)C1CC1C)C(=O)N1CCCC(N1)C(=O)OCC(C)(C)C2
viability, T/C (second compound 0.000949 µM, first compound 0.00316 µM): 102% | viability, T/C (second compound 0.000949 µM, first compound 0.01 µM): 108% | viability, T/C (second compound 0.000949 µM, first compound 0.0316 µM): 110% | viability, T/C (second compound 0.000949 µM, first compound 0.1 µM): 123% | viability, T/C (second compound 0.000949 µM, first compound 0.316 µM): 130% | viability, T/C (second compound 0.000949 µM, first compound 1 µM): 57.2% | viability, T/C (second compound 0.003 µM, first compound 0.00316 µM): 104% | viability, T/C (second compound 0.003 µM, first compound 0.01 µM): 112% | viability, T/C (second compound 0.003 µM, first compound 0.0316 µM): 111% | viability, T/C (second compound 0.003 µM, first compound 0.1 µM): 120% | viability, T/C (second compound 0.003 µM, first compound 0.316 µM): 75.3% | viability, T/C (second compound 0.003 µM, first compound 1 µM): 38.4% | viability, T/C (second compound 0.00949 µM, first compound 0.00316 µM): 82.2% | viability, T/C (second compound 0.00949 µM, first compound 0.01 µM): 64% | viability, T/C (second compound 0.00949 µM, first compound 0.0316 µM): 59.9% | viability, T/C (second compound 0.00949 µM, first compound 0.1 µM): 51.3% | viability, T/C (second compound 0.00949 µM, first compound 0.316 µM): 49.5% | viability, T/C (second compound 0.00949 µM, first compound 1 µM): 26.6% | viability, T/C (second compound 0.03 µM, first compound 0.00316 µM): 51% | viability, T/C (second compound 0.03 µM, first compound 0.01 µM): 38.1% | viability, T/C (second compound 0.03 µM, first compound 0.0316 µM): 39.4% | viability, T/C (second compound 0.03 µM, first compound 0.1 µM): 32.5% | viability, T/C (second compound 0.03 µM, first compound 0.316 µM): 33.4% | viability, T/C (second compound 0.03 µM, first compound 1 µM): 27.5% | viability, T/C (second compound 0.0949 µM, first compound 0.00316 µM): 33.2% | viability, T/C (second compound 0.0949 µM, first compound 0.01 µM): 32.3% | viability, T/C (second compound 0.0949 µM, first compound 0.0316 µM): 26.7% | viability, T/C (second compound 0.0949 µM, first compound 0.1 µM): 25.8% | viability, T/C (second compound 0.0949 µM, first compound 0.316 µM): 34.5% | viability, T/C (second compound 0.0949 µM, first compound 1 µM): 29.8% | viability, T/C (second compound 0.3 µM, first compound 0.00316 µM): 34.5% | viability, T/C (second compound 0.3 µM, first compound 0.01 µM): 32.2% | viability, T/C (second compound 0.3 µM, first compound 0.0316 µM): 30.3% | viability, T/C (second compound 0.3 µM, first compound 0.1 µM): 33.1% | viability, T/C (second compound 0.3 µM, first compound 0.316 µM): 35.9% | viability, T/C (second compound 0.3 µM, first compound 1 µM): 25.3%

IC50 (compound alone, run of 05/20/2024): > 300 nM
Compound: CCn1c(-c2cccnc2C(C)OC)c2c3cc(ccc31)N1CCOC(CC(NC(=O)C(C(C)C)N(C)C(=O)C3(F)CCN(C(=O)C#CC(C)(C)N(C)C)CC3)C(=O)N3CCCC(N3)C(=O)OCC(C)(C)C2)C1 (stereo unspecified)
viability, T/C (compound 0.000949 µM): 102% [middle of 8 runs] | viability, T/C (compound 0.003 µM): 102% [middle of 8 runs] | viability, T/C (compound 0.00949 µM): 107% [middle of 8 runs] | viability, T/C (compound 0.03 µM): 106% [middle of 8 runs] | viability, T/C (compound 0.0949 µM): 110% [middle of 8 runs] | viability, T/C (compound 0.3 µM): 109% [middle of 8 runs]

IC50 [1]: 17.7 nM | IC50 [2]: 14.1 nM | IC50 [3]: 7.66 nM | IC50 [4]: 7.94 nM | IC50 [5]: < 0.949 nM | IC50 [6]: < 0.949 nM
Compound: CC1(C)CCC(Nc2ncc(C(F)(F)F)c(-c3c[nH]c4c(P(C)(C)=O)c(C#N)ccc34)n2)CN1 (stereo unspecified) + CCn1c(-c2cc(N3CCN(C)CC3)cnc2C(C)OC)c2c3cc(ccc31)-c1csc(n1)CC(NC(=O)C1CC1C)C(=O)N1CCCC(N1)C(=O)OCC(C)(C)C2
viability, T/C (second compound 0.000949 µM, first compound 0.000949 µM): 117% | viability, T/C (second compound 0.000949 µM, first compound 0.003 µM): 92.4% | viability, T/C (second compound 0.000949 µM, first compound 0.00949 µM): 65.2% | viability, T/C (second compound 0.000949 µM, first compound 0.03 µM): 35.7% | viability, T/C (second compound 0.000949 µM, first compound 0.0949 µM): 32.2% | viability, T/C (second compound 0.000949 µM, first compound 0.3 µM): 39.1% | viability, T/C (second compound 0.003 µM, first compound 0.000949 µM): 122% | viability, T/C (second compound 0.003 µM, first compound 0.003 µM): 98.1% | viability, T/C (second compound 0.003 µM, first compound 0.00949 µM): 56.4% | viability, T/C (second compound 0.003 µM, first compound 0.03 µM): 37% | viability, T/C (second compound 0.003 µM, first compound 0.0949 µM): 37.5% | viability, T/C (second compound 0.003 µM, first compound 0.3 µM): 39.6% | viability, T/C (second compound 0.00949 µM, first compound 0.000949 µM): 82.9% | viability, T/C (second compound 0.00949 µM, first compound 0.003 µM): 73.8% | viability, T/C (second compound 0.00949 µM, first compound 0.00949 µM): 44.6% | viability, T/C (second compound 0.00949 µM, first compound 0.03 µM): 38.6% | viability, T/C (second compound 0.00949 µM, first compound 0.0949 µM): 37.1% | viability, T/C (second compound 0.00949 µM, first compound 0.3 µM): 40.8% | viability, T/C (second compound 0.03 µM, first compound 0.000949 µM): 65.7% | viability, T/C (second compound 0.03 µM, first compound 0.003 µM): 61.7% | viability, T/C (second compound 0.03 µM, first compound 0.00949 µM): 47.6% | viability, T/C (second compound 0.03 µM, first compound 0.03 µM): 32.4% | viability, T/C (second compound 0.03 µM, first compound 0.0949 µM): 39% | viability, T/C (second compound 0.03 µM, first compound 0.3 µM): 40.1% | viability, T/C (second compound 0.0949 µM, first compound 0.000949 µM): 45.8% | viability, T/C (second compound 0.0949 µM, first compound 0.003 µM): 44.3% | viability, T/C (second compound 0.0949 µM, first compound 0.00949 µM): 39.2% | viability, T/C (second compound 0.0949 µM, first compound 0.03 µM): 39.3% | viability, T/C (second compound 0.0949 µM, first compound 0.0949 µM): 36.9% | viability, T/C (second compound 0.0949 µM, first compound 0.3 µM): 32.9% | viability, T/C (second compound 0.3 µM, first compound 0.000949 µM): 37.5% | viability, T/C (second compound 0.3 µM, first compound 0.003 µM): 46% | viability, T/C (second compound 0.3 µM, first compound 0.00949 µM): 42% | viability, T/C (second compound 0.3 µM, first compound 0.03 µM): 32.6% | viability, T/C (second compound 0.3 µM, first compound 0.0949 µM): 38.5% | viability, T/C (second compound 0.3 µM, first compound 0.3 µM): 39.2%

IC50 (curve of compound): > 1000 nM
Compound: CCN1CCN(Cc2ccc(Nc3ncc(F)c(-c4cc(F)c5nc(C)n(C(C)C)c5c4)n3)nc2)CC1
viability, T/C (compound 0.01 µM): 104% [middle of 4 runs] | viability, T/C (compound 0.0316 µM): 113% [middle of 4 runs] | viability, T/C (compound 0.1 µM): 117% (3×) and 120% | viability, T/C (compound 1 µM): 64.1% (2×) and 70.2% and 59.4%
